Data taken from patent US20120052142A1, “BIOLOGICALLY ACTIVE COMPOSITIONS FROM Schisandra chinensis FOR TREATING COLORECTAL CANCER” (Dr. Chang Naturals, LLC, priority 2010, published 2012).
Entries after “also recorded” stand apart in the source; their conditions may differ. Where two headings read alike, the source gives them in different places.

Columns and labels:
[1] = system: human colorectal carcinoma cell line HT29; assay: MTS cell viability assay, HT-29; assay type: cell-based
Text: The comestible use of the fruit products and its potential anticancer properties prompted the current investigation as to whether the active constituents could be used to treat colorectal cancer. The robust MTS cell viability assay with the p53-mutant human colon HT-29 cell line served as an assay-guided screening tool for the purification of the active principles of the fruit extract (see further description in the Example section).
Erythroleukemia K562, human colon HT-29 and breast MCF-7 cancer cell lines were obtained from the American Type Culture Collection (Manassas, Va., USA). All cells were maintained in Dulbecco's modified Eagle's medium (DMEM) supplemented with 10% fetal bovine serum, penicillin (100 U ml^−1) and streptomycin (100 U ml^−1). Cells were incubated at 37° C. in a 5% CO2 humidified atmosphere.
Cells were seeded at a density of 1.5×10^4 cells/well on a 96-well plate. When the cells reached 60 to 70% confluency, the growth medium was aspirated and the wells were rinsed with pre-warmed PBS. Test compounds at various concentrations or 1% DMSO (vehicle control) were then added and the plates were incubated for 72 h. After incubation, 40 μL of a solution of CellTiter 96 Aqueous One Solution (Promega, Madison, Wis., USA) containing MTS [3-(4,5-dimethylthiazol-2-yl)-5-(3-carboxymethoxyphenyl)-2-(4-sulfophenyl)-2H-tetrazolium)] and an electron coupling reagent (phenazine ethosulfate) were added to each well with an auto-repeat pipetor. The plates were incubated for 3 hours during which time the reagent was bio-reduced into a colored formazan product by the intracellular dehydrogenase enzymes of metabolically active cells. The quantity of formazan produced is directly proportional to the number of living cells in the cultures. The absorbance (A) was measured at 490 nm (reference at 690 nm) on a PowerWave 200 microplate reader (Bio-Tek Instruments). The results were expressed as percent cell viability, calculated for each drug concentration using the formula:
% Viability=(A treated group/A control group)×100%.
(100% viability was represented by samples with DMSO vehicle control).
The half-maximal inhibitory concentration, IC50, values were obtained from the sigmoidal curve by plotting the percentage viability of cells against the drug concentration using Psi-Plot version 9, Poly Software International (Pearl River, N.Y., USA).

colon cell line LoVo = conditions: Planta Medica 2010: 76:1672-1677; cited from earlier work
hepatic carcinoma = conditions: especially in high concentrations; Molecular Medicine Reports 2:725-732, 2009; cited from earlier work
[2] = HT29, MTS cell viability, 72 h, average of two independent experiments in triplicate
[3] = HT-29, from dose-response curves (FIG. 4, FIG. 5), read-out: concentration inhibiting cell growth by 50% (IC50), molar basis

Activity IC50 [1, 2] | IC50 ([1]; Homo sapiens, HT-29, HT29, MTS cell viability, 72 h, average of two independent experiments in triplicate, read-out: Activity IC50) | IC50 ([1]; Homo sapiens, HT-29, from dose-response curves (FIG. 4, FIG. 5), read-out: concentration inhibiting cell growth by 50% (IC50), molar basis) | IC50 [1, 3] | Compound | anti-proliferative activity against HT-29 (in words) ([1]; HT-29) | anti-proliferative activity against HT-29 (in words) ([1]; HT-29, listed as schisandrin) | activity against LoVo (in words) (colon cell line LoVo) | apoptosis induction in hepatic carcinoma (in words) (hepatic carcinoma)
>1000 mg/L |  |  |  | COc1cc2c(c(OC)c1OC)-c1c(cc(OC)c(OC)c1OC)C[C@](C)(O)[C@@H](C)C2 [Schisandrin, schisandrin] | devoid of detectable biological activity | does not show any activity; also recorded: inactive |  | 
17 mg/L |  |  | 43 µM | COc1cc2c(c(OC)c1OC)-c1c(cc3c(c1OC)OCO3)C[C@H](C)[C@H](C)C2 [Gomisin N, gomisin N] |  |  | do not find Gomisin N to be active | induces high apoptotic levels
300 mg/L |  |  | 716 µM | COc1cc2c(c(OC)c1OC)-c1c(cc3c(c1OC)OCO3)C[C@H](C)[C@](C)(O)C2 [Gomisin A, gomisin A] |  |  |  | 

More lines, now with the values behind:

Compound | Activity IC50 [1, 2] | IC50 ([1]; Homo sapiens, HT-29, HT29, MTS cell viability, 72 h, average of two independent experiments in triplicate, read-out: Activity IC50) | IC50 ([1]; Homo sapiens, HT-29, from dose-response curves (FIG. 4, FIG. 5), read-out: concentration inhibiting cell growth by 50% (IC50), molar basis) | IC50 [1, 3] | anti-proliferative activity against HT-29 (in words) ([1]; HT-29) | anti-proliferative activity against HT-29 (in words) ([1]; HT-29, listed as schisandrin) | activity against LoVo (in words) (colon cell line LoVo) | apoptosis induction in hepatic carcinoma (in words) (hepatic carcinoma)
COc1cc2c(c(OC)c1OC)-c1c(cc(OC)c(OC)c1OC)C[C@H](C)[C@@H](C)C2 [Deoxyschisandrin, deoxyschisandrin] |  | 140 mg/L | 336 µM |  |  |  |  | 
C/C=C(/C)C(=O)Oc1c(OC)c(OC)cc2c1-c1c(cc(OC)c(OC)c1OC)C[C@](C)(O)[C@@H](C)C2 [Angeloylgomisin H, angeloylgomisin H] | 348 mg/L |  |  | 696 µM | moderate activity |  |  | 
